Data as given in ChEMBL document CHEMBL1201862, “PubChem BioAssay data set” (2004).
Calls of active or inactive are those of the source.

What was measured:
[1] = Luminescence Cell-Based Dose Confirmation HTS to Identify Activators of 5'UTR Stem-Loop Driven Alpha-Synuclein mRNA Translation in H4 Neuroglioblastoma Cells. [Related pubchem assays: 1829 (Project Summary), 1814 (Primary HTS)]; format: functional
[2] = biological target: Galanin receptor type 2 (Homo sapiens, UniProt O43603); test: Dose Response cell-based high-throughput screening assay to identify antagonists of galanin receptor 2 (GALR2). [Related pubchem assays: 828, 866 ]; format: functional
Sequence of Galanin receptor type 2 (O43603 whole entry): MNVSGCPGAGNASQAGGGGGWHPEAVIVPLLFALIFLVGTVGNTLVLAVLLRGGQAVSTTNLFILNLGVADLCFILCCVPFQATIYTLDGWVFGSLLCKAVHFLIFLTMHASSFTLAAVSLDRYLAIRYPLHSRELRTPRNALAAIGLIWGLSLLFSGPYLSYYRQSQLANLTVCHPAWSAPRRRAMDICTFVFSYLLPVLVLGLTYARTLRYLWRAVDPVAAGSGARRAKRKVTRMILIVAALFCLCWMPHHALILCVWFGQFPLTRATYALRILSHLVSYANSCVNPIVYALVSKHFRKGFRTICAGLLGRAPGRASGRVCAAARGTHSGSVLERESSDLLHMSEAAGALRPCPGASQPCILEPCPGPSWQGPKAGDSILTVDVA

[3] = tested on: H4; test: Luminescence Cell-Based Dose Response HTS to Identify Activators of 5'UTR Stem-Loop Driven Prion Protein mRNA Translation in H4 Neuroglioblastoma Cells. [Related pubchem assays: 1829 (Project Summary), 1814 (Primary HTS)]; format: functional; settings: Homo sapiens
[4] = Luminescence Cell-Based Dose Response HTS to Identify Activators of Luciferase Translation or Activity in H4 […] Cells. [Related pubchem assays: 1829 (Project Summary), 1814 (Primary HTS)]; format: functional
[5] = tested on: BJ; test: cells; format: functional, cell-based; settings: Homo sapiens
[6] = growth suppression of PTEN-null colon cells, dose response, cell-based, HCT116 PTEN knockout (AID 1047); format: functional;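 note: HCT116 colon tumor cells with PTEN knocked out; cells exposed to compound for 60 hours before readout; potency for loss of cell viability measured by luminescence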
[7] = tested on: BJ; test: cytotoxicity toward BJ-TERT fibroblasts, dose response, cell-based, RAS-independent, luminescence (AID 1933); format: functional; settings: Homo sapiens
[8] = tested on: BJ; test: cytotoxicity toward BJ-TERT-LT-ST fibroblasts, dose response, cell-based, RAS-independent, luminescence (AID 1935); format: functional; settings: Homo sapiens;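 note: BJ fibroblasts immortalized with TERT plus LT and ST oncogenes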
[9] = cytotoxicity toward DRD oncogenic fibroblasts, dose response, cell-based, non-viral oncogenic, luminescence (AID 1934); format: functional; settings: Homo sapiens
[10] = Luminescence Cell-Based Dose Confirmation HTS to Identify Inhibitors of Polyadenylation.; format: functional
[11] = growth suppression of beta-catenin-knockout colon cells, dose response, cell-based, HCT116, human colon tumor (AID 1045); format: functional;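 note: HCT116 colon tumor cells with beta catenin knocked out; cells exposed to compound for 60 hours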
[12] = tested on: INS1; test: beta cell apoptosis inhibitors, cytokine rescue, dose response, luminescence, retest (AID 449756); format: functional, cell-based; settings: Rattus norvegicus;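 note: cell death triggered by IL-1 beta plus TNF-alpha plus IFN-gamma mixture; protective hits raise ATP signal compared with cytokine alone wells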
[13] = biological target: Glucose-6-phosphate 1-dehydrogenase (Homo sapiens, UniProt P11413); test: human G6PD enzyme inhibitors, dose response, selectivity assay for P. falciparum G6PD inhibitor project, biochemical, fluorescence (AID 504792); format: functional
Sequence of Glucose-6-phosphate 1-dehydrogenase (P11413 whole entry): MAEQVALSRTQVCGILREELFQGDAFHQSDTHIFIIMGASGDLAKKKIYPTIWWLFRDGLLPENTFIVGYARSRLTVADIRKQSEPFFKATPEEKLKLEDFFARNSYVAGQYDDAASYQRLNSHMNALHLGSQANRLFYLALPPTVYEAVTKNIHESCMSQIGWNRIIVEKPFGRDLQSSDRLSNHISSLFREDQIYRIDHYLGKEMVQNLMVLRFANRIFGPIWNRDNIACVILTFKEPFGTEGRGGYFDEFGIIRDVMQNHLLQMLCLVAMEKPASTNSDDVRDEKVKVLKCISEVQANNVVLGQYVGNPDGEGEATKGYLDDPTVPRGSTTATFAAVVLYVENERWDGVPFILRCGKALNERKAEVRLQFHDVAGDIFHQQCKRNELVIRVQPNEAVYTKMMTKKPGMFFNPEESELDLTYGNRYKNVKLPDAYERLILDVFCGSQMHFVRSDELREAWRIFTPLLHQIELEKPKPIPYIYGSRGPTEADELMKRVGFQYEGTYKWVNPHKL

[14] = biological target: Heat shock protein HSP 90-alpha (Homo sapiens, UniProt P07900); test: Luminescence-based dose response biochemical high throughput screening assay for inhibitors of the Heat Shock Protein 90 (HSP90). [Related pubchem assays: 1831 (Summary AID.), 1846 (Confirmation screen.), 1789 (Primary screen.)]
[15] = biological target: T1, Protein skinhead-1 (Caenorhabditis elegans, UniProt P34707); format: functional
T1 sequence (P34707 whole entry): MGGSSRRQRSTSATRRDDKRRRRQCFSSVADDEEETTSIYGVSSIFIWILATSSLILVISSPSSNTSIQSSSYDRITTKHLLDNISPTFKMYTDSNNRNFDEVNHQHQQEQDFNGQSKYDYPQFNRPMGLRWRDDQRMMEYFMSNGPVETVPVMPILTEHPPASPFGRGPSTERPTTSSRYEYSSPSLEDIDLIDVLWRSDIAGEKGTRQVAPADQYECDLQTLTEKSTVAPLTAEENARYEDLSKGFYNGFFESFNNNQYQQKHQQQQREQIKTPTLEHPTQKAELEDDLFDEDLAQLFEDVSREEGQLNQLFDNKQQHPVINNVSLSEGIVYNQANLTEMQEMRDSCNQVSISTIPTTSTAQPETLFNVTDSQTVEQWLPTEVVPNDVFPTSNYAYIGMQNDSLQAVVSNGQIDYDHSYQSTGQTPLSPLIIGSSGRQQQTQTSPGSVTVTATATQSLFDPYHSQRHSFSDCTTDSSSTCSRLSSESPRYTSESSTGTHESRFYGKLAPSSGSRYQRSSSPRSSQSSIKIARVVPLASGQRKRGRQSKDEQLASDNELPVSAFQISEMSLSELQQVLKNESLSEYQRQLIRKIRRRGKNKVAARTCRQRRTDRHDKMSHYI

[16] = tested on: HEK293; test: cells; settings: Homo sapiens
[17] = biological target: Mitogen-activated protein kinase 10 (Homo sapiens, UniProt P53779); test: Dose response biochemical screening assay for inhibitors of c-Jun N-Terminal Kinase 3 (JNK3). [Related pubchem assays: 746 ]
Sequence of Mitogen-activated protein kinase 10 (P53779 whole entry): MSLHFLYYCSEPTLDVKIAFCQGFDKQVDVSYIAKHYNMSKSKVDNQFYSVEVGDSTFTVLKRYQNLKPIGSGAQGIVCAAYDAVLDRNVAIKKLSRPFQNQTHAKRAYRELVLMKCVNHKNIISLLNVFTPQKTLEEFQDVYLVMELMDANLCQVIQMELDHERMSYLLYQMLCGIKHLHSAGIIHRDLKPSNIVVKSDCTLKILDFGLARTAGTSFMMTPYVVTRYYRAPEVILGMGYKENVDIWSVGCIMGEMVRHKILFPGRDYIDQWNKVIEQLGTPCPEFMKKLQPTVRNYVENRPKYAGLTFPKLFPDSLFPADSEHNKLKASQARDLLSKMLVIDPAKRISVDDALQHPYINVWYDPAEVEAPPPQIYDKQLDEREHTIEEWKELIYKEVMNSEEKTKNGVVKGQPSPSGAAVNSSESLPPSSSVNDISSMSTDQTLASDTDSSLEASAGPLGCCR

[18] = tested on: HEK293; test: cells; settings: Homo sapiens; remark: listed apart in the source
[19] = biological target: Transitional endoplasmic reticulum ATPase (Homo sapiens, UniProt P55072, C522A); test: Luminescence counterscreen assay for p97 inhibitors: dose response biochemical high throughput screening assay to identify inhibitors of the C522A mutant p97 ATPase: synthesized compounds. [Related pubchem assays: 1481, 1517, 1551 ]
Sequence of Transitional endoplasmic reticulum ATPase (Homo sapiens, UniProt P55072, C522A) (P55072 2-806 C522A limits assumed): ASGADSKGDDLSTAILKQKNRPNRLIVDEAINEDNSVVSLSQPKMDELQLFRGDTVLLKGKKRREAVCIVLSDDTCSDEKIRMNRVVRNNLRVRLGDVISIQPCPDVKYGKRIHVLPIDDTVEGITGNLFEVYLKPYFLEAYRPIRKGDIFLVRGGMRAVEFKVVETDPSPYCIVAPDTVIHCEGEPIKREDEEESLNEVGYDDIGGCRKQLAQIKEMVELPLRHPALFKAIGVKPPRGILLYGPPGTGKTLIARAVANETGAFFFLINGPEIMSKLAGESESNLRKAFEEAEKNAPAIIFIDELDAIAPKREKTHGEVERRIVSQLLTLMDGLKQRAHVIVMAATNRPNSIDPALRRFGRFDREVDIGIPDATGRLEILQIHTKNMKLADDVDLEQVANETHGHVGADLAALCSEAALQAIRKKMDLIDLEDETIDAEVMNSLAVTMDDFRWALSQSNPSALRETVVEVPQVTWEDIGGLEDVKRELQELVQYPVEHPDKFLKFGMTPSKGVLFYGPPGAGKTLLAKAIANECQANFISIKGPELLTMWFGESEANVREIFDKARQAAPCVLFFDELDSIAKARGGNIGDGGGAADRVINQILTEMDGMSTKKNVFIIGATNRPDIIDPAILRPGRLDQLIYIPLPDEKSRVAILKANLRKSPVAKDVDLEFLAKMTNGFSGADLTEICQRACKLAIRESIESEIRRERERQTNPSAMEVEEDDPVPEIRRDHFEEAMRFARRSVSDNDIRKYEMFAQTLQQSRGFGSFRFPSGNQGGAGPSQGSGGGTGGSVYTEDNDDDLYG

[20] = biological target: Transitional endoplasmic reticulum ATPase (Homo sapiens, UniProt P55072); test: Luminescence dose response biochemical high throughput screening assay for inhibitors of the p97 ATPase: synthesized compounds. [Related pubchem assays: 1481, 1517 ]
Sequence of Transitional endoplasmic reticulum ATPase (Homo sapiens, UniProt P55072) (P55072 whole entry): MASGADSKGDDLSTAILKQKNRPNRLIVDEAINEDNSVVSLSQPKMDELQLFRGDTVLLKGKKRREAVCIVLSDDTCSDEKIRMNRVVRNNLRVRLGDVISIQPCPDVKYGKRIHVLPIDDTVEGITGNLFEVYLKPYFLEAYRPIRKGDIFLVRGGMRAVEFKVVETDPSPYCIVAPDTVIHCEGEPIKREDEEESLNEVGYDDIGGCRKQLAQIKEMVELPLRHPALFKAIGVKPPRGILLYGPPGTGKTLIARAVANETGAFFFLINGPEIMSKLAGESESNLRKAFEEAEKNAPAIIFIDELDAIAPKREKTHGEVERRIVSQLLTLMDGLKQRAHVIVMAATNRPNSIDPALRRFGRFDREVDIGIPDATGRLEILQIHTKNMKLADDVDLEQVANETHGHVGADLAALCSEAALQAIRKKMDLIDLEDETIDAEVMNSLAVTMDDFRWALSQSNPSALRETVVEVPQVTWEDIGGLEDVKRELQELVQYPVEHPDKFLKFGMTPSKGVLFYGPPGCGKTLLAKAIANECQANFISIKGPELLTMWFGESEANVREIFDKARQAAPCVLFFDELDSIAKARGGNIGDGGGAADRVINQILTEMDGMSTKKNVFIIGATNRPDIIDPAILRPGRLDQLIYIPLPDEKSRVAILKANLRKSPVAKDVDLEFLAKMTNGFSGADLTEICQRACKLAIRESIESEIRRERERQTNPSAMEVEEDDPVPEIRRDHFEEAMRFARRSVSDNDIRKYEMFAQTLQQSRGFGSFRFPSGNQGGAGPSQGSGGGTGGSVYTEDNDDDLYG

[21] = biological target: Protein-tyrosine kinase 2-beta (Homo sapiens, UniProt Q14289);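 note: potency of inhibitors of PYK2 kinase phosphorylation of poly-GT substrate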
Sequence of Protein-tyrosine kinase 2-beta (Q14289 whole entry): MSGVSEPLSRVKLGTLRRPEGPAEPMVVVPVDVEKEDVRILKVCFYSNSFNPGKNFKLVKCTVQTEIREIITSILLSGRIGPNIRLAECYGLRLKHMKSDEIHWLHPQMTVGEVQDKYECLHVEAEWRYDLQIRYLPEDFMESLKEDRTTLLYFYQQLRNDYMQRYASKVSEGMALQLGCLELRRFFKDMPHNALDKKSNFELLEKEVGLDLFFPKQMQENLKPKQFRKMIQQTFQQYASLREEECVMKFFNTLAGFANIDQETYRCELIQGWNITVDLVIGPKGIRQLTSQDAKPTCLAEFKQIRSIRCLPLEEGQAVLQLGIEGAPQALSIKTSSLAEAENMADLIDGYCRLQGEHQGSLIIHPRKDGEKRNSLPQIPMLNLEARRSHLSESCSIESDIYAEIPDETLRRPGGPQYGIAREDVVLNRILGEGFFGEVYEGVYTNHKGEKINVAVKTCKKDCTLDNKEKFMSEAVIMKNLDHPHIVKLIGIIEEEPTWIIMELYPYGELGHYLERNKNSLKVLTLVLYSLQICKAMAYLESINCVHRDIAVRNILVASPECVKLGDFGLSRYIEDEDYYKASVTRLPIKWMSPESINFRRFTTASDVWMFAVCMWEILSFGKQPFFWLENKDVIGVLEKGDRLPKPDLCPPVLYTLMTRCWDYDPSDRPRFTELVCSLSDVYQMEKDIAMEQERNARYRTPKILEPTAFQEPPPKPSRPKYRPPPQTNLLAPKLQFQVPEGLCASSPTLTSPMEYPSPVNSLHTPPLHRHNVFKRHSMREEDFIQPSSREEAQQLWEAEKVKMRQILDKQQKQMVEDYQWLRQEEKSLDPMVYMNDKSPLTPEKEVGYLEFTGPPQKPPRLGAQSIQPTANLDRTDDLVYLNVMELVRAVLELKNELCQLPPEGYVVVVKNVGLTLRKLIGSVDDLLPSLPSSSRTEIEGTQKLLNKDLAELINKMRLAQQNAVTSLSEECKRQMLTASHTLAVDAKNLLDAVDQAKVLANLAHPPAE

[22] = biological target: NADPH oxidase 1 (Homo sapiens, UniProt Q9Y5S8); test: Late-stage luminescence-based cell-based dose response assay to identify inhibitors of NADPH oxidase 1 (NOX1): Synthesized analogs 2.; format: functional
Sequence of NADPH oxidase 1 (Q9Y5S8 whole entry): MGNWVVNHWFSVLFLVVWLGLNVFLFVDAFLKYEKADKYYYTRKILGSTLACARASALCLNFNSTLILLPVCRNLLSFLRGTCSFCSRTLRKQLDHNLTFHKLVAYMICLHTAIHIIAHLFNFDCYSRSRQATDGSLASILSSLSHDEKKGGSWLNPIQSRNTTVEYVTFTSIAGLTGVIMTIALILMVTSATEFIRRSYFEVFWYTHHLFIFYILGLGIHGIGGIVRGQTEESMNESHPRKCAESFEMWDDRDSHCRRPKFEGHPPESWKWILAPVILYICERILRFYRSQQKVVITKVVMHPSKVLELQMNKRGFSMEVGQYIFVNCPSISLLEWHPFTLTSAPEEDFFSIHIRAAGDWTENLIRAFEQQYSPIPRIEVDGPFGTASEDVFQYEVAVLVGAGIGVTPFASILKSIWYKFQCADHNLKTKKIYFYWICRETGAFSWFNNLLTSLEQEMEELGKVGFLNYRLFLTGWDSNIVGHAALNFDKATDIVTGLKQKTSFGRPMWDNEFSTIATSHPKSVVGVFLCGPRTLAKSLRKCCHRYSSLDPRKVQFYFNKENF

[23] = biological target: Aryl hydrocarbon receptor (Homo sapiens, UniProt P35869); test: Luminescence-based cell-based high throughput dose response assay for activators of the Aryl Hydrocarbon Receptor (AHR). [Related pubchem assays: 2796 (Primary screen (AHR activators in singlicate)), 2845 (Confirmation screen (AHR activators in triplicate)), 434939 (Counterscreen (PXR activators in triplicate)), 2804 (Summary (AHR activators))]; format: ADME
[24] = M. tuberculosis H37Rv growth inhibitors, H37Rv strain (AID 1626); format: functional

N#C/C(=C\c1cccs1)c1nc2ccccc2[nH]1
EC50 [1]: 2.67 µM (active)
IC50 [2]: > 42 µM (not active)
EC50 [3]: 15.8 µM (active)
EC50 [4]: 26.6 µM (active)

N#C/C(=C\c1ccc([N+](=O)[O-])o1)c1nc2ccccc2[nH]1
EC50 [5]: > 150 µM (inconclusive)
EC50 [6]: 0.985 µM (active)
EC50 [7]: 2.27 µM (inconclusive)
EC50 [8]: > 150 µM (inconclusive)
EC50 [9]: 5.9 µM (inconclusive)
EC50 [10]: 3.64 µM (active)
EC50 [11]: 1.01 µM (active)
AC50 [12]: 3.02 µM (active)

[O-]/[N+](=C\c1ccco1)c1ccc(Cl)cc1
IC50 [13]: 27.6 µM (inactive)
IC50 [14]: 4.31 µM (active)
IC50 [15]: > 100 µM (inactive)

COc1cc(C2NC(=O)NC(C)=C2C(=O)OCc2ccccc2)ccc1O (centres undefined)
EC50 [16]: > 59.6 µM (inactive)
IC50 [17]: > 93.1 µM (not active)
EC50 [18]: > 59.6 µM (inactive)

N#CC(C#N)=Cc1c2ccccc2cc2ccccc12
IC50 [19]: > 50 µM (not active)
IC50 [20]: > 50 µM (not active)

CCOC(=O)C1=C(c2ccccc2)OC(N)=C(C#N)C1C1CCCCC1 (centres undefined)
IC50 [21]: > 69.5 µM (not active)

CN1c2ccccc2Sc2cc(N=[N+]=[N-])ccc21
IC50 [22]: 0.73 µM (active)

CCCCc1cc2c(c(NC(C)=O)n1)c(=O)oc1ccccc12
EC50 [23]: 3.25 µM (active)

C=CCn1c(COc2ccc3c(c2)CCCC3)nnc1SCC(=O)Nc1cccc(SC)c1
IC50 [24]: > 100 µM (active)
